Biological target: T1, purified Hemoglobin S (HbS) (Homo sapiens, UniProt P68871+P69905, E7V)
T1 construct: HbS was purified by a modified procedure; from tissue; host or cells: blood of homozygous sickle cell patients (CHORI); for the polymerization assay purified by the CRO VIRUSYS
Assay: Modulation of hemoglobin oxygen affinity: oxygen equilibrium curves (HEMOX) in purified HbS
Assay type: biochemical, human (homozygous sickle cell patients)
Conditions: compound at 30 μM; 25 μM purified HbS, 45 min at 37° C.
Protocol: Oxygen equilibrium curves (OEC) in purified Hemoglobin S (HbS) were measured by the change in p50, the partial pressure of oxygen at which the heme binding sites in the HbS sample are 50% saturated with oxygen. HbS was purified by a modified procedure (Antonini and Brunori, 1971; Heomoglobin and Myoglobin in their Reactions with Ligands; North Holland Publishing Company; Amsterdam, London) from blood obtained from homozygous sickle cell patients though the Hemoglobinopathy Center at Children's Hospital Oakland Research Institute (CHORI) with Institutional Review Board approval. Oxygen equilibrium curves were carried out with a HEMOX analyzer, (TCS Scientific, New Hope, Pa.). Five hundred μL of 250 μM purified HbS were diluted into 4.5 mL of HEMOX buffer (30 mM TES, 130 mM NaCl, 5 mM KCl, pH=7.4) resulting in a final hemoglobin concentration of 25 μM. The compounds were added at the final desired concentrations. The mixture was incubated for 45 min at 37° C. and then transferred to the Hemox sample chamber. The samples were saturated with oxygen by flushing with compressed air for 10 minutes. The samples were then flushed with pure nitrogen and the absorbance of deoxy-Hb was recorded as a function of the solution pO2. The oxygen equilibrium data was then fit to the Hill Model to obtain values for p50. The deoxygenation curves for both HbS alone (control) and HbS in the presence of compound were collected with the TCS software. The p50 for purified Hbs was typically 13.8±1.6. Delta p50 values were obtained from the p50 value for control minus the p50 value for HbS treated with compound divided by the p50 value for the control.
The compounds of Table 1 that were where tested in the assay above were all found to have positive delta p50 values. Delta p50% is calculated from [[p50(HbS) −p50(HbS treated with compound)]/p50(HbS)]×100. Table 2 below lists the delta p50% values where + indicates a delta p50% of between 0 and 29, ++ indicates a delta p50% of between 30 and 50, and +++ indicates a delta p50% of 50 or greater. Unless noted otherwise, the compounds in Table 2 were tested at 30 μM.

| Structure (SMILES) | delta p50% |
| --- | --- |
| COc1cc(C=O)c(OCc2ccc3ccncc3c2)cn1 [Compound 82, 5-(isoquinolin-7-ylmethoxy)-2-methoxyisonicotinaldehyde] | + (a delta p50% of between 0 and 29) |
| Cc1ccc(OCc2cccc3c2cnn3C)c(C=O)n1 [Compound 85, 6-methyl-3-((1-methyl-1H-indazol-4-yl)methoxy)picolinaldehyde] | + (a delta p50% of between 0 and 29) |
| Cc1ccc(OCc2cccc3[nH]ncc23)c(C=O)n1 [Compound 88, 3-((1H-indazol-4-yl)methoxy)-6-methylpicolinaldehyde] | + (a delta p50% of between 0 and 29) |
| COc1ccc(OCc2ccc3cnn(C)c3c2)c(C=O)n1 [Compound 89, 6-methoxy-3-((1-methyl-1H-indazol-6-yl)methoxy)picolinaldehyde] | + (a delta p50% of between 0 and 29) |
| COc1cc(C=O)c(OCc2cccc3cnn(C)c23)cn1 [Compound 90, 2-methoxy-5-((1-methyl-1H-indazol-7-yl)methoxy)isonicotinaldehyde] | + (a delta p50% of between 0 and 29) |
| Cc1ccc(OCc2ccc3ccccc3n2)c(C=O)n1 [Compound 94, 6-methyl-3-(quinolin-2-ylmethoxy)picolinaldehyde] | + (a delta p50% of between 0 and 29) |
| COc1cc(C=O)c(OCc2cnccc2-c2cn[nH]c2)cn1 [Compound 95, 5-((4-(1H-pyrazol-4-yl)pyridin-3-yl)methoxy)-2-methoxyisonicotinaldehyde] | + (a delta p50% of between 0 and 29) |
| Cc1ccc(OCc2cccc3ocnc23)c(C=O)n1 [Compound 99, 3-(benzo[d]oxazol-4-ylmethoxy)-6-methylpicolinaldehyde] | + (a delta p50% of between 0 and 29) |
| COc1cc(C=O)c(OCc2cncc(C(N)=O)c2)cn1 [Compound 101, 5-((4-formyl-6-methoxypyridin-3-yloxy)methyl)nicotinamide] | + (a delta p50% of between 0 and 29) |
| COc1cc(C=O)c(OCc2cc(-c3ccn[nH]3)cn3ccnc23)cn1 [Compound 104, 5-((6-(1H-pyrazol-5-yl)imidazo[1,2-a]pyridin-8-yl)methoxy)-2-methoxyisonicotinaldehyde] | + (a delta p50% of between 0 and 29) |
| COc1cc(C=O)c(OCc2ccc3[nH]ncc3c2)cn1 [Compound 107, 5-((1H-indazol-5-yl)methoxy)-2-methoxyisonicotinaldehyde] | + (a delta p50% of between 0 and 29) |
| COc1cc(C=O)c(OCc2ccc3c(cnn3C)c2)cn1 [Compound 110, 2-methoxy-5-((1-methyl-1H-indazol-5-yl)methoxy)isonicotinaldehyde] | + (a delta p50% of between 0 and 29) |
| COc1cc(C=O)c(NC(=O)c2cccn3ccnc23)cn1 [Compound 112, N-(4-formyl-6-methoxypyridin-3-yl)imidazo[1,2-a]pyridine-8-carboxamide] | + (a delta p50% of between 0 and 29) |
| COc1cc(C=O)c(OCc2cc3ccccc3nc2-c2ccn[nH]2)cn1 [Compound 117] | + (a delta p50% of between 0 and 29) |

Now from value to compound:

| delta p50% | Structure (SMILES) |
| --- | --- |
| + (a delta p50% of between 0 and 29) | Cc1ccc(OCc2ccc3ccncc3c2)c(C=O)n1 [Compound 83, 3-(isoquinolin-7-ylmethoxy)-6-methylpicolinaldehyde] |
| + (a delta p50% of between 0 and 29) | COc1cc(C=O)c(OCc2cccc3[nH]ncc23)cn1 [Compound 87, 5-((1H-indazol-4-yl)methoxy)-2-methoxyisonicotinaldehyde] |
| + (a delta p50% of between 0 and 29) | COc1cc(C=O)c(OCc2cc(Br)cn3ccnc23)cn1 [Compound 96, 5-((6-bromoimidazo[1,2-a]pyridin-8-yl)methoxy)-2-methoxyisonicotinaldehyde] |
| + (a delta p50% of between 0 and 29) | COc1cc(C=O)c(OCc2cc(C#N)cn3ccnc23)cn1 [Compound 97, 8-((4-formyl-6-methoxypyridin-3-yloxy)methyl)imidazo[1,2-a]pyridine-6-carbonitrile] |
| + (a delta p50% of between 0 and 29) | COc1cc(C=O)c(OCc2cncc(C#N)c2)cn1 [Compound 98, 5-((4-formyl-6-methoxypyridin-3-yloxy)methyl)nicotinonitrile] |
| + (a delta p50% of between 0 and 29) | COc1cc(C=O)c(OCc2cc(C(N)=O)cn3ccnc23)cn1 [Compound 100, 8-((4-formyl-6-methoxypyridin-3-yloxy)methyl)imidazo[1,2-a]pyridine-6-carboxamide] |
| + (a delta p50% of between 0 and 29) | COc1cc(C=O)c(OCc2cc(-c3cn[nH]c3)cn3ccnc23)cn1 [Compound 102, 5-((6-(1H-pyrazol-4-yl)imidazo[1,2-a]pyridin-8-yl)methoxy)-2-methoxyisonicotinaldehyde] |
| + (a delta p50% of between 0 and 29) | COc1cc(C=O)c(OCc2ccnc3cccnc23)cn1 [Compound 105, 5-((1,5-naphthyridin-4-yl)methoxy)-2-methoxyisonicotinaldehyde] |
| + (a delta p50% of between 0 and 29) | Cc1ccc(OCc2ccc3c(c2)c(Cl)nn3C)c(C=O)n1 [Compound 109, 3-((3-chloro-1-methyl-1H-indazol-5-yl)methoxy)-6-methylpicolinaldehyde] |
| + (a delta p50% of between 0 and 29) | COc1cc(C=O)c(OCc2ccc3c(c2)c(Cl)nn3C)cn1 [Compound 111] |
| + (a delta p50% of between 0 and 29) | Cc1ccc(OCc2ccnc3c2c(C)nn3C)c(C=O)n1 [Compound 113, 3-((1,3-dimethyl-1H-pyrazolo[3,4-b]pyridin-4-yl)methoxy)-6-methylpicolinaldehyde] |
| + (a delta p50% of between 0 and 29) | COc1cc(C=O)c(OCc2ccnc3c2c(C)nn3C)cn1 [Compound 114, 5-((1,3-dimethyl-1H-pyrazolo[3,4-b]pyridin-4-yl)methoxy)-2-methoxyisonicotinaldehyde] |
| + (a delta p50% of between 0 and 29) | COc1cc(C=O)c(OCc2cc3ccccc3nc2Cl)cn1 [Compound 116, 5-((2-chloroquinolin-3-yl)methoxy)-2-methoxyisonicotinaldehyde] |
| + (a delta p50% of between 0 and 29) | COc1cc(C=O)c(OCc2cnc3ccccc3n2)cn1 [Compound 118, 2-methoxy-5-(quinoxalin-2-ylmethoxy)isonicotinaldehyde] |
| + (a delta p50% of between 0 and 29) | Cc1ccc(OCc2cnc3c(cnn3C)c2)c(C=O)n1 [Compound 121, 6-methyl-3-((1-methyl-1H-pyrazolo[3,4-b]pyridin-5-yl)methoxy)picolinaldehyde] |
| + (a delta p50% of between 0 and 29) | COc1cc(C=O)c(OCc2cnc3c(cnn3C)c2)cn1 [Compound 122, 2-methoxy-5-((1-methyl-1H-pyrazolo[3,4-b]pyridin-5-yl)methoxy)isonicotinaldehyde] |
| + (a delta p50% of between 0 and 29) | COc1cc(C=O)c(OCc2c(-c3cc[nH]n3)ccn3cncc23)cn1 [Compound 123, 5-((7-(1H-pyrazol-3-yl)imidazo[1,5-a]pyridin-8-yl)methoxy)-2-methoxyisonicotinaldehyde] |
| + (a delta p50% of between 0 and 29) | COc1cc(C=O)c(OCc2cncc(-c3nn[nH]n3)c2)cn1 [Compound 124, 5-((5-(2H-tetrazol-5-yl)pyridin-3-yl)methoxy)-2-methoxyisonicotinaldehyde] |
